The subject of data set [1] is C. albicans ATCC 10231. The data set can be described thus: In vitro susceptibility testing, microdilution broth (EUCAST), C. albicans control strain. It is filed as cell-based, Candida albicans. The conditions noted are these: Candida albicans; for IC50: ATCC10231, C. albicans ATCC 10231, mean and 95% confidence interval. (In general: Broth dilution looks for growth in wells or tubes with falling amounts of substance.)

Data set [2] is described as follows: Cytotoxicity test on Vero cells (WST8/CCK-8 cell viability). Type of data set: cell-based, African green monkey. The following applies: African green monkey, Vero cells (ATCC CCL-81), Vero cells, mean and 95% confidence interval. On the technique in general: Tetrazolium dyes change colour on reduction, which living cells bring about.
For data set [3], the system named is C. albicans. The data set can be described thus: In vitro susceptibility testing, C. albicans clinical isolate. It is filed as cell-based. The conditions noted are these: Candida albicans; clinical isolate; mean and 95% confidence interval; read-out: IC50 C. albicans. The source says: (§1) The yeasts included in the present study were Candida albicans ATCC 10231 (American Type Culture Collection) and a collection of yeasts recovered from a variety of clinical specimens, i.e., blood, urine, genital swabs, bronchoalveolar lavage, nail specimens, collected at the Microbiology Unit, St. Orsola Malpighi University Hospital, Bologna, Italy. The clinical strain isolates were identified by standard procedures, including colony morphology on chromogenic agar (CHROMagar Candida medium, Becton Dickinson, Heidelberg, Germany) and confirmed by MALDI Biotyper System using matrix-assisted laser desorption ionization–time of flight mass spectrometry (MALDI-TOF MS, Bruker Daltonik, GmbH, Germany).
(§2) The in vitro antifungal activity of the chalcones was evaluated by a microdilution broth method in accordance with the guidelines provided by the EUCAST Edef 7.3 [22]. Briefly, all strains were cultured on Sabauraud dextrose, then inocula, prepared at 0.5 McFarland, were diluted 1:20 in RPMI-1640 medium (Gibco®, ThermoFisher Scientific Inc., Waltham, MA, USA), containing glucose 2%, 0.3% levo-glutamine buffered to pH 7.0 with 0.165 M 3-(N-morpholino)propanesulfonic acid (MOPS) to yield 1-5 × 10^5 cells/mL. A total of 100 µL of the yeast suspension was inoculated in a 96-well microplate and incubated with 100 µL of serially 2-fold dilution of the compound in the range 200–6.25 µM. The following controls were included: yeast suspensions incubated in RPMI-1640 culture medium (positive growth control), or supplemented with dilutions of DMSO, or fluconazole (Sigma-Aldrich, St. Louis, MO, USA) as a commercial drug. To check the background turbidity of reagents and the sterility of the procedure, dilutions of each compound were incubated in RPMI-1640 culture medium, without yeast inoculum. The inoculated plate was incubated at 37 °C for 24 h, and subsequently the optical density at 630 nm was measured by the Multiskan Ascent microplate reader (Thermo Fisher Scientific Inc.). The effectiveness of the compounds was expressed as percent inhibition relative to the positive growth control when the inhibition […] the 50% at 100 µM. The IC50 value was determined by interpolation of the dose–response curves generated by plotting the percentages of growth inhibition, relative to the drug-free control (set to 100% of growth), as a function of the tested concentrations (on a logarithm scale). Statistical analysis was carried out by the nonlinear regression method using GraphPad Prism version 5.0 for Windows (GraphPad Software, San Diego, CA, USA). All assays were performed in triplicate and at least two independent experiments were carried out.

For data set [4], the system named is C. parapsilosis. The data set can be described thus: In vitro susceptibility testing, C. parapsilosis clinical isolate. Type of data set: cell-based. The conditions noted are these: Lodderomyces parapsilosis; clinical isolate; read-out: IC50 C. parapsilosis.
Excerpt: as §1, §2

In data set [5] the test system is C. lusitaniae. The experiment in a line: In vitro susceptibility testing, C. lusitaniae clinical isolate. It is filed as cell-based. The conditions noted are these: Clavispora lusitaniae; clinical isolate; read-out: IC50 C. lusitaniae.
Excerpt: as §1, §2

Data set [6] has as its system C. tropicalis. The experiment in a line: In vitro susceptibility testing, C. tropicalis clinical isolate. Type of data set: cell-based. The following applies: Candida tropicalis; clinical isolate; read-out: IC50 C. tropicalis.
Excerpt: as §1, §2

For data set [7], the system named is C. krusei. The experiment in a line: In vitro susceptibility testing, C. krusei clinical isolate. It is filed as cell-based. The following applies: Pichia kudriavzevii; clinical isolate; read-out: IC50 C. krusei.
Excerpt: as §1, §2

In data set [8] the test system is C. glabrata. The data set can be described thus: In vitro susceptibility testing, C. glabrata clinical isolate. Type of data set: cell-based. The following applies: Nakaseomyces glabratus; clinical isolate; read-out: IC50 C. glabrata.
Excerpt: as §1, §2

Data set [9] deals with C. utilis. The experiment in a line: In vitro susceptibility testing, C. utilis clinical isolate. Type of data set: cell-based. The conditions noted are these: Williopsis jadinii; clinical isolate; read-out: IC50 C. utilis.
Excerpt: as §1, §2

The subject of data set [10] is C. neoformans. The experiment in a line: In vitro susceptibility testing, C. neoformans clinical isolate. Type of data set: cell-based. The following applies: Cryptococcus neoformans; clinical isolate; read-out: IC50 C. neoformans.
Excerpt: as §1, §2

For data set [11], the system named is S. clavata. The data set can be described thus: In vitro susceptibility testing, S. clavata clinical isolate. Type of data set: cell-based. The conditions noted are these: clinical isolate; read-out: IC50 S. clavata.
Excerpt: as §1, §2

Data set [12] relates to R. mucilaginosa. The experiment in a line: In vitro susceptibility testing, R. mucilaginosa clinical isolate. Type of data set: cell-based. The following applies: clinical isolate; read-out: IC50 R. mucilaginosa.
Excerpt: as §1, §2

The test system of data set [13] is C. albicans ATCC 10231. The data set can be described thus: Effect on yeast-to-hyphae transition. The following applies: compound at IC50 value, 2 h. It is filed as cell-based, Candida albicans. The source says:
Blastospore and hyphae forms were observed under a light microscope.

Data set [14] deals with C. albicans ATCC 10231. The experiment in a line: Agar-invasive hyphal growth (Spider agar assay). Type of data set: cell-based, Candida albicans. The following applies: compounds at IC50 values, three days at 37 °C. How it is done:
Aliquots (2 µL) of a suspension of C. albicans ATCC 10231 (5 × 10^5 cells/mL) were spotted onto medium in triplicate and the morphology of growing colonies was observed following three days of incubation at 37 °C. Spider agar plates without chalcones, containing DMSO, served as the control. The presence of filaments at the colony edges was determined using a light microscope under 10× magnification.

Data set [15] deals with C. albicans ATCC 10231. The data set can be described thus: Disruption of preformed mature biofilm (biofilm metabolic activity). The following applies: compounds added to preformed mature biofilm; statistically significant. It is filed as cell-based, Candida albicans.

Broadly, the inhibition is the percentage by which the read-out fell short of the control.

Several values for one entry are separate records, joined by “and”; a condition that tells them apart may be missing. Equal entries are not always repeated. Where two headings read alike, the source gives them in different places.

In the case of `O=C(/C=C/c1cccc(F)c1)c1cc(F)ccc1O` [Compound 7, (E)-1-(5-Fluoro-2-hydroxyphenyl)-3-(3-fluorophenyl)prop-2-en-1-one], the IC50 in [1] (read-out: IC50) is 53 µM; in data set [1] (read-out: IC50 [μg/mL]), 13.8 µg/mL; in [3], 32.1 µM and 8.4 µg/mL; in [4], 100 µM and 26 µg/mL; in data set [5], 31.7 µM and 8.2 µg/mL; in [6] it was > 200 µM and > 52 µg/mL. For the same compound, the IC50 in data set [7] is 100 µM and 26 µg/mL; in [8], 100 µM and 26 µg/mL; in data set [9], 100 µM and 26 µg/mL; in [10] it was 15.6 µM and 4.1 µg/mL; in [11] it was 37 µM and 9.6 µg/mL; in data set [12] it was 80 µM and 20.8 µg/mL. The compound also came in with an inhibition at 100 µM in [1] (ATCC10231, at 100 μM, C. albicans ATCC 10231, 24 h) of 69 ± 12.4%. In addition, the CC50 at 72 h in data set [2] (read-out: CC50) came out at 182 µM; in [2] (read-out: CC50 [μg/mL]), 47.3 µg/mL. Also, in data set [13], the “cell morphology after treatment” value was “mainly formed blastospores, some rare budding cells but no hyphae”. Moreover, the “invasion of Spider medium (filamentation)” value in data set [14] is recorded as “unable to penetrate the medium”. In [15], the “reduction of metabolism of sessile cells in mature biofilm” value was below 25%.

Values taken from publication PMC6359675, “Functionalization of the Chalcone Scaffold for the Discovery of Novel Lead Compounds Targeting Fungal Infections” (Molecules, 2019).
